Numbered stars: 1 amine (or outer) side, 2 acyl side, 3 side chain; on linkers, the order of the positions; unused ones are H or OH. Bridge positions count the residues as written; N and C are the ends. Square brackets hold non-standard residues; d marks the D form. Peptide text beside a SMILES is read from it. ξ: configuration not given here. Trp(1-CH2CONHSO2Me) = CS(=O)(=O)NC(=O)Cn1cc(C[C@H](N)C(=O)O)c2ccccc21; Trp(4-aza,1-CH2COOH) = N[C@@H](Cc1cn(CC(=O)O)c2cccnc12)C(=O)O; Trp(7-aza,1-CH2COOH) = N[C@@H](Cc1cn(CC(=O)O)c2ncccc12)C(=O)O; X1 = O=C(O)Cn1c(C(=O)O)c(C[C@H](N[*:1])C(=O)[*:2])c2ccccc21; X12 = O=C(O)Cc1nn(C[C@H](N[*:1])C(=O)[*:2])c2ccccc12; X13 = O=C(O)Cc1nc(C[C@H](N[*:1])C(=O)[*:2])c2ccccn12; X5 = O=C(O)Cn1nc(C[C@H](N[*:1])C(=O)[*:2])c2ccccc21; Trp(5-CN) = N#Cc1ccc2[nH]cc(C[C@H](N)C(=O)O)c2c1; X2 = O=C(O)Cc1cn(CC(N[*:1])C(=O)[*:2])c2cccnc12; X15 = O=C([C@H](Cc1n[nH]c2ccccc12)N[*:1])[*:2]; Hyp = O=C(O)[C@@H]1C[C@@H](O)CN1; NMeNle = CCCC[C@H](NC)C(=O)O; Pen = CC(C)(S)[C@H](N)C(=O)O; Pip = O=C(O)[C@@H]1CCCCN1; NMeA = CN[C@@H](C)C(=O)O; Dab = NCC[C@H](N)C(=O)O; Dap = NC[C@H](N)C(=O)O; ξP = O=C(O)C1CCCN1
Each molecule was assayed against T1, PD-1-Ig binding to PD-L1-TVMV-His (PD-L1-His) (Homo sapiens, UniProt Q9NZQ7) (assay: PD-1/PD-L1 Homogenous Time-Resolved Fluorescence (HTRF) binding assay). Conditions: PD-1-Ig (20 nM)/PD-L1-His (10 nM); numeric value.
T1 construct: hPDL1 (19-239)-TVMV-His; TVMV protease cleavage site (C); made in house; host or cells: HEK293T cells
T1 sequence (Q9NZQ7 with tags, fused parts or gaps): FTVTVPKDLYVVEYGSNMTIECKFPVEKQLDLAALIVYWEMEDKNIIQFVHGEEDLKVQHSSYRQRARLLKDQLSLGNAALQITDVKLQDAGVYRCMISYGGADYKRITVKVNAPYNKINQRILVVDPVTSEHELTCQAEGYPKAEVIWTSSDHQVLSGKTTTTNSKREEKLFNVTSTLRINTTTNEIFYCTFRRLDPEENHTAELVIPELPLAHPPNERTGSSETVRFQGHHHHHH
Excerpt: The ability of the macrocyclic peptides of the present disclosure to bind to PD-L1 was investigated using a PD-1/PD-L1 Homogenous Time-Resolved Fluorescence (HTRF) binding assay.
Homogenous Time-Resolved Fluorescence (HTRF) Assays of Binding of Soluble PD-1 to Soluble PD-L1. Soluble PD-1 and soluble PD-L1 refers to proteins with carboxyl-end truncations that remove the transmembrane-spanning regions and are fused to heterologous sequences, specifically the Fc portion of the human immunoglobuling G sequence (Ig) or the hexahistidine epitope tag (His). All binding studies were performed in an HTRF assay buffer consisting of dPBS supplemented with 0.1% (w/v) bovine serum albumin and 0.05% (v/v) Tween-20. For the PD-1-Ig/PD-L1-His binding assay, inhibitors were pre-incubated with PD-L1-His (10 nM final) for 15 m in 4 μl of assay buffer, followed by addition of PD-1-Ig (20 nM final) in 1 μl of assay buffer and further incubation for 15 m. PD-L1 fusion proteins from either human, cynomologous macaques, mouse, or other species were used. HTRF detection was achieved using europium crypate-labeled anti-Ig monoclonal antibody (1 nM final) and allophycocyanin (APC) labeled anti-His monoclonal antibody (20 nM final). Antibodies were diluted in HTRF detection buffer and 5 μl was dispensed on top of binding reaction. The reaction was allowed to equilibrate for 30 minutes and signal (665 nm/620 nm ratio) was obtained using an EnVision fluorometer. Additional binding assays were established between PD-1-Ig/PD-L2-His (20 and 5 nM, respectively), CD80-His/PD-L1-Ig (100 and 10 nM, respectively) and CD80-His/CTLA4-Ig (10 and 5 nM, respectively). Binding/competition studies between biotinylated Compound No. 71 and human PD-L1-His were performed as follows. Macrocyclic peptide inhibitors were pre-incubated with PD-L1-His (10 nM final) for 60 minutes in 4 μl of assay buffer followed by addition of biotinylated Compound No. 71 (0.5 nM final) in 1 μl of assay buffer. Binding was allowed to equilibrate for 30 minutes followed by addition of europium crylated labeled Streptavidin (2.5 pM final) and APC-labeled anti-His (20 nM final) in 5 μl of HTRF buffer. The reaction was allowed to equilibrate for 30 m and signal (665 nm/620 nm ratio) was obtained using an EnVision fluorometer.
Recombinant Proteins. Carboxyl-truncated human PD-1 (amino acids 25-167) with a C-terminal human Ig epitope tag [hPD-1 (25-167)-3S-IG] and human PD-L1 (amino acids 18-239) with a C-terminal His epitope tag [hPD-L1(19-239)-tobacco vein mottling virus protease cleavage site (TVMV)-His] were expressed in HEK293T cells and purified sequentially by recombinant Protein A affinity chromatography and size exclusion chromatography. Human PD-L2-His (Sino Biologicals), CD80-His (Sino Biologicals), CTLA4-Ig (RnD Systems) were all obtained through commercial sources.

IC50	Compound
13 nM	CCCC[C@H]1C(=O)N(C)[C@@H](CCCC)C(=O)N[C@@H](CC(C)C)C(=O)N[C@H](C(N)=O)CSCC(=O)N[C@@H](Cc2ccc(O)cc2)C(=O)N(C)[C@@H](C)C(=O)N[C@@H](CC(N)=O)C(=O)N2CCC[C@H]2C(=O)N[C@@H](CN)C(=O)N[C@@H](CC(C)C)C(=O)N2C[C@H](O)C[C@H]2C(=O)N[C@@H](Cc2c[nH]c3ccccc23)C(=O)N[C@@H](CCN)C(=O)N[C@@H](Cc2cn(CC(=O)O)c3cccnc23)C(=O)N1C [Example 10502] ({CH2CO}-Y[NMeA]NP[Dap]L[Hyp]W[Dab][Trp(4-aza,1-CH2COOH)][NMeNle][NMeNle]LC-NH2; thioether N-14)

Same assay, conditions: PD-1-Ig (20 nM)/PD-L1-His (10 nM); range class

Compound	IC50
CCCC[C@H]1C(=O)N(C)[C@@H](CCCC)C(=O)N[C@@H](CC(C)C)C(=O)N[C@H](C(N)=O)CSCC(=O)N[C@@H](Cc2ccc(O)cc2)C(=O)N(C)[C@@H](C)C(=O)N[C@@H](CC(N)=O)C(=O)N2CCC[C@H]2C(=O)N[C@@H](CN)C(=O)N[C@@H](CC(C)C)C(=O)N2C[C@H](O)C[C@H]2C(=O)N[C@@H](Cc2c[nH]c3ccccc23)C(=O)N[C@@H](CCN)C(=O)N[C@@H](Cc2nn(CC(=O)O)c3ccccc23)C(=O)N1C [Example 10501] ({CH2CO}-Y[NMeA]NP[Dap]L[Hyp]W[Dab][X5][NMeNle][NMeNle]LC-NH2; thioether N-14)	1 to 9.9 nM
CCCC[C@H]1C(=O)N(C)[C@@H](CCCC)C(=O)N[C@@H](CC(C)C)C(=O)N[C@H](C(=O)NCC(N)=O)CSCC(=O)N[C@@H](Cc2ccc(O)cc2)C(=O)N(C)[C@@H](C)C(=O)N[C@@H](CC(N)=O)C(=O)N2CCC[C@H]2C(=O)N[C@@H](CN)C(=O)N[C@@H](CC(C)C)C(=O)N2C[C@H](O)C[C@H]2C(=O)N[C@@H](Cc2c[nH]c3ccccc23)C(=O)N[C@@H](CCN)C(=O)N[C@@H](Cc2nc(CC(=O)O)n3ccccc23)C(=O)N1C [Example 1016] ({CH2CO}-Y[NMeA]NP[Dap]L[Hyp]W[Dab][X13][NMeNle][NMeNle]LCG-NH2; thioether N-14)	1 to 9.9 nM
CCCC[C@H]1C(=O)N(C)[C@@H](CCCC)C(=O)N[C@@H](CC(C)C)C(=O)N[C@H](C(N)=O)CSCC(=O)N[C@@H](Cc2ccc(O)cc2)C(=O)N(C)[C@@H](C)C(=O)N[C@@H](CC(N)=O)C(=O)N2CCC[C@H]2C(=O)N[C@@H](CN)C(=O)N[C@@H](CC(C)C)C(=O)N2C[C@H](O)C[C@H]2C(=O)N[C@@H](Cc2c[nH]c3ccccc23)C(=O)N[C@@H](CCN)C(=O)N[C@@H](Cc2cn(CC(=O)O)c3ncccc23)C(=O)N1C [Example 10504] ({CH2CO}-Y[NMeA]NP[Dap]L[Hyp]W[Dab][Trp(7-aza,1-CH2COOH)][NMeNle][NMeNle]LC-NH2; thioether N-14)	1 to 9.9 nM
CCCC[C@H]1C(=O)N(C)[C@@H](CCCC)C(=O)N[C@@H](CC(C)C)C(=O)N[C@H](C(N)=O)C(C)(C)SCC(=O)N[C@@H](Cc2ccc(OC)cc2)C(=O)N2CCCC[C@H]2C(=O)N[C@@H](CC(=O)O)C(=O)N2CCC[C@H]2C(=O)N[C@@H](CN)C(=O)N[C@@H](CCC(=O)O)C(=O)N2C[C@H](O)C[C@H]2C(=O)N[C@@H](Cc2c[nH]c3ccccc23)C(=O)N[C@@H](CCN)C(=O)N[C@@H](Cc2cn(CC(=O)NS(C)(=O)=O)c3ccccc23)C(=O)N1C [Example 1004] ({CH2CO}-Y(Me)[Pip]DP[Dap]E[Hyp]W[Dab][Trp(1-CH2CONHSO2Me)][NMeNle][NMeNle]L[Pen]-NH2; thioether N-14)	1 to 9.9 nM
CCCC[C@H]1C(=O)N(C)[C@@H](CCCC)C(=O)N[C@@H](CC(C)C)C(=O)N[C@H](C(=O)NCC(N)=O)CSCC(=O)N[C@@H](Cc2ccc(O)cc2)C(=O)N(C)[C@@H](C)C(=O)N[C@@H](CC(=O)O)C(=O)N2CCC[C@H]2C(=O)N[C@@H](Cc2cnc[nH]2)C(=O)N[C@@H](CCCCN)C(=O)N2C[C@H](O)C[C@H]2C(=O)N[C@@H](Cc2c[nH]c3ccccc23)C(=O)N[C@@H](CCCCN)C(=O)N[C@@H](Cc2cn(CC(=O)NS(C)(=O)=O)c3ccccc23)C(=O)N1C [Example 1019] ({CH2CO}-Y[NMeA]DPHK[Hyp]WK[Trp(1-CH2CONHSO2Me)][NMeNle][NMeNle]LCG-NH2; thioether N-14)	1 to 9.9 nM
CCCC[C@H]1C(=O)N(C)[C@@H](CCCC)C(=O)N[C@@H](CC(C)C)C(=O)N[C@H](C(=O)NCC(N)=O)CSCC(=O)N[C@@H](Cc2ccc(O)cc2)C(=O)N(C)[C@@H](C)C(=O)N[C@@H](CC(N)=O)C(=O)N2CCC[C@H]2C(=O)N[C@@H](CN)C(=O)N[C@@H](CC(C)C)C(=O)N2C[C@H](O)C[C@H]2C(=O)N[C@@H](Cc2c[nH]c3ccccc23)C(=O)N[C@@H](CCN)C(=O)N[C@@H](Cn2nc(CC(=O)O)c3ccccc32)C(=O)N1C [Example 1012] ({CH2CO}-Y[NMeA]NP[Dap]L[Hyp]W[Dab][X12][NMeNle][NMeNle]LCG-NH2; thioether N-14)	10 to 99 nM

The next lines start with the values.

IC50	Compound
100 to 990 nM	CCCC[C@H]1C(=O)N(C)[C@@H](CCCC)C(=O)N[C@@H](C)C(=O)N[C@H](C(=O)NCC(N)=O)CSCC(=O)N[C@@H](Cc2ccc(O)cc2)C(=O)N(C)[C@@H](C)C(=O)N[C@@H](CC(N)=O)C(=O)N2CCCC2C(=O)N[C@@H](Cc2cnc[nH]2)C(=O)N[C@@H](CCC(N)=O)C(=O)N2C[C@H](O)C[C@H]2C(=O)N[C@@H](Cc2c[nH]c3ccccc23)C(=O)N[C@@H](CO)C(=O)N[C@@H](Cc2c[nH]c3ccc(C#N)cc23)C(=O)N1C (stereo partly drawn) [Example 1284] ({CH2CO}-Y[NMeA]N[ξP]HQ[Hyp]WS[Trp(5-CN)][NMeNle][NMeNle]ACG-NH2; thioether N-14)
100 to 990 nM	CCCC[C@H]1C(=O)N(C)[C@@H](CCCC)C(=O)N[C@@H](C)C(=O)N[C@H](C(=O)NCC(N)=O)CSCC(=O)N[C@@H](Cc2ccc(O)cc2)C(=O)N(C)[C@@H](C)C(=O)N[C@@H](CC(N)=O)C(=O)N2CCCC2C(=O)N[C@@H](Cc2cnc[nH]2)C(=O)N[C@@H](CCC(N)=O)C(=O)N2C[C@H](O)C[C@H]2C(=O)N[C@@H](Cc2c[nH]c3ccccc23)C(=O)N[C@@H](CO)C(=O)N[C@@H](Cc2n[nH]c3ccccc23)C(=O)N1C (stereo partly drawn) [Example 1286] ({CH2CO}-Y[NMeA]N[ξP]HQ[Hyp]WS[X15][NMeNle][NMeNle]ACG-NH2; thioether N-14)
100 to 990 nM	CCCC[C@H]1C(=O)N(C)[C@@H](CCCC)C(=O)N[C@@H](CC(C)C)C(=O)N[C@H](C(=O)NCC(N)=O)CSCC(=O)N[C@@H](Cc2ccc(O)cc2)C(=O)N(C)[C@@H](C)C(=O)N[C@@H](CC(N)=O)C(=O)N2CCC[C@H]2C(=O)N[C@@H](CN)C(=O)N[C@@H](CC(C)C)C(=O)N2C[C@H](O)C[C@H]2C(=O)N[C@@H](Cc2c[nH]c3ccccc23)C(=O)N[C@@H](CCN)C(=O)NC(Cn2cc(CC(=O)O)c3ncccc32)C(=O)N1C (stereo partly drawn) [Example 10003] ({CH2CO}-Y[NMeA]NP[Dap]L[Hyp]W[Dab][X2][NMeNle][NMeNle]LCG-NH2; thioether N-14)
10 to 99 nM	CCCC[C@H]1C(=O)N(C)[C@@H](CCCC)C(=O)N[C@@H](CC(C)C)C(=O)N[C@H](C(=O)NCC(N)=O)CSCC(=O)N[C@@H](Cc2ccc(O)cc2)C(=O)N(C)[C@@H](C)C(=O)N[C@@H](CC(N)=O)C(=O)N2CCC[C@H]2C(=O)N[C@@H](CN)C(=O)N[C@@H](CC(C)C)C(=O)N2C[C@H](O)C[C@H]2C(=O)N[C@@H](Cc2c[nH]c3ccccc23)C(=O)N[C@@H](CCN)C(=O)N[C@@H](Cc2c(C(=O)O)n(CC(=O)O)c3ccccc23)C(=O)N1C [Example 1013] ({CH2CO}-Y[NMeA]NP[Dap]L[Hyp]W[Dab][X1][NMeNle][NMeNle]LCG-NH2; thioether N-14)
1 to 9.9 nM	CCCC[C@H]1C(=O)N(C)[C@@H](CCCC)C(=O)N[C@@H](CC(C)C)C(=O)N[C@H](C(N)=O)C(C)(C)SCC(=O)N[C@@H](Cc2ccc(O)cc2)C(=O)N2CCCC[C@H]2C(=O)N[C@@H](CC(=O)O)C(=O)N2CCC[C@H]2C(=O)N[C@@H](Cc2cnc[nH]2)C(=O)N[C@@H](CCC(=O)O)C(=O)N2C[C@H](O)C[C@H]2C(=O)N[C@@H](Cc2c[nH]c3ccccc23)C(=O)N[C@@H](CCN)C(=O)N[C@@H](Cc2cn(CC(=O)NS(C)(=O)=O)c3ccccc23)C(=O)N1C [Example 1010] ({CH2CO}-Y[Pip]DPHE[Hyp]W[Dab][Trp(1-CH2CONHSO2Me)][NMeNle][NMeNle]L[Pen]-NH2; thioether N-14)
